Assay results from patent US9115122B2, “Non-ATP dependent inhibitors of extracellular signal-regulated kinase (ERK)” (UNIVERSITY OF MARYLAND, BALTIMORE, priority 2012, dated 2015).

Columns and labels:
Assay in all cases: Cell proliferation WST-1 assay, single dose (Example 4)
Format in all cases: cell-based
Settings in all cases: 100 μM, 48 hours
[1] = test system: HL-60 leukemic cells
Method in brief: (§1)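 About 5000 cells per well recovered for 16–20 h and were then treated with a single dose of compound for 48 h. Proliferation was read by WST-1 absorbance at 450 nm minus 650 nm background and normalized to DMSO-only controls.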

[2] = test system: RPMI-7951 melanoma cells
Method in brief: as §1

[3] = test system: Jurkat T-cell leukemia cells
Method in brief: as §1

[4] = test system: SK-MEL-28 melanoma cells
Method in brief: as §1

[5] = test system: A375 melanoma cells
Method in brief: as §1

[6] = test system: HeLa cervical carcinoma cells
Method in brief: as §1

CCOc1ccc(/C=C2\SC(=O)N(Cc3ccc(C(=O)OC(C)(C)C)cc3)C2=O)cc1 [Compound 28p, (Z)-tert-butyl 4-((5-(4-ethoxybenzylidene)-2,4-dioxothiazolidin-3-yl)methyl)benzoate]
Cell Viability (% of Vehicle) HL-60 [1]: 98 ± 24 % of Vehicle | Cell Viability (% of Vehicle) RPMI-7951 [2]: 122 ± 1 % of Vehicle | Cell Viability (% of Vehicle) Jurkat [3]: 101 ± 2 % of Vehicle | Cell Viability (% of Vehicle) SK-MEL-28 [4]: 105 ± 3 % of Vehicle | Cell Viability (% of Vehicle) A375 [5]: 119 ± 1 % of Vehicle | Cell Viability (% of Vehicle) HeLa [6]: 100 ± 6 % of Vehicle

CCOc1ccc(/C=C2\SC(=O)N(Cc3ccc(C(=O)O)cc3)C2=O)cc1 [Compound 28q, (Z)-4-((5-(4-ethoxybenzylidene)-2,4-dioxothiazolidin-3-yl)methyl)benzoic acid]
Cell Viability (% of Vehicle) HL-60 [1]: 84 ± 37 % of Vehicle | Cell Viability (% of Vehicle) RPMI-7951 [2]: 34 ± 3 % of Vehicle | Cell Viability (% of Vehicle) Jurkat [3]: 85 ± 3 % of Vehicle | Cell Viability (% of Vehicle) SK-MEL-28 [4]: 59 ± 13 % of Vehicle | Cell Viability (% of Vehicle) A375 [5]: 2.0 ± 0.5 % of Vehicle | Cell Viability (% of Vehicle) HeLa [6]: 64 ± 2 % of Vehicle

CCOc1ccc(/C=C2\SC(=O)N(Cc3cccc(C(=O)O)c3)C2=O)cc1 [Compound 28r, (Z)-3-((5-(4-ethoxybenzylidene)-2,4-dioxothiazolidin-3-yl)methyl)benzoic acid]
Cell Viability (% of Vehicle) HL-60 [1]: 41 ± 22 % of Vehicle | Cell Viability (% of Vehicle) RPMI-7951 [2]: 83 ± 6 % of Vehicle | Cell Viability (% of Vehicle) Jurkat [3]: 80 ± 3 % of Vehicle | Cell Viability (% of Vehicle) SK-MEL-28 [4]: 83 ± 7 % of Vehicle | Cell Viability (% of Vehicle) A375 [5]: 59 ± 1 % of Vehicle | Cell Viability (% of Vehicle) HeLa [6]: 75 ± 4 % of Vehicle

CCOc1ccc(/C=C2\SC(=O)N(Cc3ccccc3C(=O)O)C2=O)cc1 [Compound 28s, (Z)-2-((5-(4-ethoxybenzylidene)-2,4-dioxothiazolidin-3-yl)methyl)benzoic acid]
Cell Viability (% of Vehicle) HL-60 [1]: 31 ± 15 % of Vehicle | Cell Viability (% of Vehicle) RPMI-7951 [2]: 45 ± 8 % of Vehicle | Cell Viability (% of Vehicle) Jurkat [3]: 46 ± 1 % of Vehicle | Cell Viability (% of Vehicle) SK-MEL-28 [4]: 49 ± 8 % of Vehicle | Cell Viability (% of Vehicle) A375 [5]: 39 ± 1 % of Vehicle | Cell Viability (% of Vehicle) HeLa [6]: 61 ± 4 % of Vehicle

NCCN1C(=O)S/C(=C\c2ccccc2)C1=O [Compound 30a, (Z)-3-(2-aminoethyl)-5-benzylidenethiazolidine-2,4-dione]
Cell Viability (% of Vehicle) HL-60 [1]: 28 ± 20 % of Vehicle | Cell Viability (% of Vehicle) RPMI-7951 [2]: 89 ± 17 % of Vehicle | Cell Viability (% of Vehicle) Jurkat [3]: 88 ± 4 % of Vehicle | Cell Viability (% of Vehicle) SK-MEL-28 [4]: 88 ± 7 % of Vehicle | Cell Viability (% of Vehicle) A375 [5]: 82 ± 9 % of Vehicle | Cell Viability (% of Vehicle) HeLa [6]: 82 ± 10 % of Vehicle

CCOc1cccc(/C=C2\SC(=O)N(CCN)C2=O)c1 [Compound 30b, (Z)-3-(2-aminoethyl)-5-(3-ethoxybenzylidene)thiazolidine-2,4-dione]
Cell Viability (% of Vehicle) HL-60 [1]: 4.8 ± 2 % of Vehicle | Cell Viability (% of Vehicle) RPMI-7951 [2]: 30 ± 2 % of Vehicle | Cell Viability (% of Vehicle) Jurkat [3]: 54 ± 5 % of Vehicle | Cell Viability (% of Vehicle) SK-MEL-28 [4]: 36 ± 6 % of Vehicle | Cell Viability (% of Vehicle) A375 [5]: 19 ± 3 % of Vehicle | Cell Viability (% of Vehicle) HeLa [6]: 40 ± 1 % of Vehicle

CCOc1ccccc1/C=C1\SC(=O)N(CCN)C1=O [Compound 30c, (Z)-3-(2-aminoethyl)-5-(2-ethoxybenzylidene)thiazolidine-2,4-dione]
Cell Viability (% of Vehicle) HL-60 [1]: 8.9 ± 4 % of Vehicle | Cell Viability (% of Vehicle) RPMI-7951 [2]: 45 ± 2 % of Vehicle | Cell Viability (% of Vehicle) Jurkat [3]: 66 ± 5 % of Vehicle | Cell Viability (% of Vehicle) SK-MEL-28 [4]: 52 ± 11 % of Vehicle | Cell Viability (% of Vehicle) A375 [5]: 22 ± 9 % of Vehicle | Cell Viability (% of Vehicle) HeLa [6]: 39 ± 3 % of Vehicle

Cc1ccc(/C=C2\SC(=O)N(CCN)C2=O)cc1 [Compound 30d, (Z)-3-(2-aminoethyl)-5-(4-methylbenzylidene)thiazolidine-2,4-dione]
Cell Viability (% of Vehicle) HL-60 [1]: 4.8 ± 2 % of Vehicle | Cell Viability (% of Vehicle) RPMI-7951 [2]: 23 ± 1 % of Vehicle | Cell Viability (% of Vehicle) Jurkat [3]: 71 ± 6 % of Vehicle | Cell Viability (% of Vehicle) SK-MEL-28 [4]: 31 ± 7 % of Vehicle | Cell Viability (% of Vehicle) A375 [5]: 23 ± 6 % of Vehicle | Cell Viability (% of Vehicle) HeLa [6]: 54 ± 3 % of Vehicle

CCCc1ccc(/C=C2\SC(=O)N(CCN)C2=O)cc1 [Compound 30e, (Z)-3-(2-aminoethyl)-5-(4-propylbenzylidene)thiazolidine-2,4-dione]
Cell Viability (% of Vehicle) HL-60 [1]: 5.9 ± 2 % of Vehicle | Cell Viability (% of Vehicle) RPMI-7951 [2]: 0.7 ± 0.1 % of Vehicle | Cell Viability (% of Vehicle) Jurkat [3]: 16 ± 8 % of Vehicle | Cell Viability (% of Vehicle) SK-MEL-28 [4]: 0.6 ± 0.4 % of Vehicle | Cell Viability (% of Vehicle) A375 [5]: 0.6 ± 0.1 % of Vehicle | Cell Viability (% of Vehicle) HeLa [6]: 11 ± 2 % of Vehicle

NCCN1C(=O)S/C(=C\c2ccc(O)cc2)C1=O [Compound 30f, (Z)-3-(2-aminoethyl)-5-(4-hydroxybenzylidene)thiazolidine-2,4-dione]
Cell Viability (% of Vehicle) HL-60 [1]: 17 ± 12 % of Vehicle | Cell Viability (% of Vehicle) RPMI-7951 [2]: 24 ± 5 % of Vehicle | Cell Viability (% of Vehicle) Jurkat [3]: 96 ± 3 % of Vehicle | Cell Viability (% of Vehicle) SK-MEL-28 [4]: 38 ± 3 % of Vehicle | Cell Viability (% of Vehicle) A375 [5]: 8.8 ± 2 % of Vehicle | Cell Viability (% of Vehicle) HeLa [6]: 63 ± 10 % of Vehicle

NCCN1C(=O)S/C(=C\c2ccccc2O)C1=O [Compound 30i, (Z)-3-(2-aminoethyl)-5-(2-hydroxybenzylidene)thiazolidine-2,4-dione]
Cell Viability (% of Vehicle) HL-60 [1]: 24 ± 8 % of Vehicle | Cell Viability (% of Vehicle) RPMI-7951 [2]: 102 ± 10 % of Vehicle | Cell Viability (% of Vehicle) Jurkat [3]: 99 ± 5 % of Vehicle | Cell Viability (% of Vehicle) SK-MEL-28 [4]: 85 ± 9 % of Vehicle | Cell Viability (% of Vehicle) A375 [5]: 78 ± 3 % of Vehicle | Cell Viability (% of Vehicle) HeLa [6]: 68 ± 3 % of Vehicle

CC(C)COc1ccccc1/C=C1\SC(=O)N(CCN)C1=O [Compound 30j, (Z)-3-(2-aminoethyl)-5-(2-isobutoxybenzylidene)thiazolidine-2,4-dione]
Cell Viability (% of Vehicle) HL-60 [1]: 9.5 ± 3.4 % of Vehicle | Cell Viability (% of Vehicle) RPMI-7951 [2]: 1.0 ± 0.04 % of Vehicle | Cell Viability (% of Vehicle) Jurkat [3]: 1.8 ± 0.1 % of Vehicle | Cell Viability (% of Vehicle) SK-MEL-28 [4]: 1.0 ± 0.1 % of Vehicle | Cell Viability (% of Vehicle) A375 [5]: 0.8 ± 0.02 % of Vehicle | Cell Viability (% of Vehicle) HeLa [6]: 0.8 ± 0.1 % of Vehicle

NCCN1C(=O)S/C(=C\c2ccccc2OCc2ccccc2)C1=O [Compound 30k, (Z)-3-(2-aminoethyl)-5-(2-(benzyloxy)benzylidene)thiazolidine-2,4-dione]
Cell Viability (% of Vehicle) HL-60 [1]: 8.3 ± 3.4 % of Vehicle | Cell Viability (% of Vehicle) RPMI-7951 [2]: 0.9 ± 0.1 % of Vehicle | Cell Viability (% of Vehicle) Jurkat [3]: 1.5 ± 0.1 % of Vehicle | Cell Viability (% of Vehicle) SK-MEL-28 [4]: 0.6 ± 0.04 % of Vehicle | Cell Viability (% of Vehicle) A375 [5]: 0.6 ± 0.03 % of Vehicle | Cell Viability (% of Vehicle) HeLa [6]: 0.6 ± 0.1 % of Vehicle

N#Cc1ccc(COc2ccccc2/C=C2\SC(=O)N(CCN)C2=O)cc1 [Compound 30l, (Z)-4-((2-((3-(2-aminoethyl)-2,4-dioxothiazolidin-5-ylidene)methyl)phenoxy)methyl)benzonitrile]
Cell Viability (% of Vehicle) HL-60 [1]: 5.7 ± 2 % of Vehicle | Cell Viability (% of Vehicle) RPMI-7951 [2]: 0.6 ± 0.03 % of Vehicle | Cell Viability (% of Vehicle) Jurkat [3]: 6.7 ± 1 % of Vehicle | Cell Viability (% of Vehicle) SK-MEL-28 [4]: 0.5 ± 0.01 % of Vehicle | Cell Viability (% of Vehicle) A375 [5]: 0.5 ± 0.04 % of Vehicle | Cell Viability (% of Vehicle) HeLa [6]: 8.0 ± 2 % of Vehicle
